Values of other authors in patent US20220354806A1, “COMPOSITION FOR IMPROVING MEMORY” (BGG JAPAN CO., LTD., priority 2019, published 2022).

Experiments:
[1] = placebo group ingesting corn oil
[2] = after ingesting compared with before ingesting; no placebo comparison
[3] = greater than that of a vitamin E

SMILES: CC1=C(/C=C/C(C)=C/C=C/C(C)=C/C=C/C=C(C)/C=C/C=C(C)/C=C/C2=C(C)C(=O)C(O)CC2(C)C)C(C)(C)CC(O)C1=O (stereo not drawn) [astaxanthin, 3,3′-dihydroxy-β,β-carotene-4,4′-dione]
- improvement effect on the human cognitive function, astaxanthin group vs placebo group [1]: a significant difference of the improvement effect on the human cognitive function is not confirmed
- correct answer rate in the operation of the "working memory" [2]: improved
- response time of all 5 operations (simple reaction, choice reaction, working memory, delayed recall, divided attention) [2]: improved
- anti-oxidation effect relative to vitamin E [3]: 1000 times
